Tests used:
[1] = test system: osteoarthritis; assay: Treating osteoarthritis in a subject (experiments of prior application Ser. No. 13/428,996 and present application); type: in vivo; conditions: stated without data; based on prior and present application
Source text: Prior experiments conducted by the present inventors, such as those disclosed in the co-pending U.S. application Ser. No. 13/428,996 (the entirety of which is incorporated herein by reference) and experiments provided hereinbelow, reveal that several short, synthetic PEDF peptides derived from the 39-mer, are capable of treating osteoarthritis in a subject.

[2] = test system: primary chondrocytes from rat articular cartilage; assay: Primary articular chondrocyte proliferation in vitro; type: cell-based, Sprague-Dawley rats; conditions: 50 nM peptide; for Aggrecan Labeling Index (%): rat articular chondrocyte monolayer culture, 12 days, mean±SEM, *P<0.01 vs untreated
Method: Articular cartilage was harvested from femoral condyles (the anterior, posterior and lateral areas) of adult 8-wk-old male Sprague-Dawley rats. Care was taken to avoid contamination with synovium and to disruption of the bony structures during the sampling process. Dissected tissue was cut into small (about 0.5 mm^3) pieces and digested sequentially by pronase (70 U/ml, 1 hour at 37° C.) and collagenase (300 U/ml, 3 hours at 37° C.). After digestion, collagenase was removed by a single wash in sterile phosphate-buffered saline (PBS), followed by two further washes in DMEM supplemented with 2% FBS. For primary culture, 6000 trypan blue-negative cells per well were plated on 10 μg/ml fibronectin-coated coverslips in a 6-well plate in 10% FBS-DMEM supplemented with 1% penicillin/streptomycin. The next day, the medium was changed to the standard expansion medium (consisting of 10% FBS-DMEM, 0.1 mM ascorbic acid, 0.5 mg/ml L-glucose, 100 mM HEPES, 1 mM sodium pyruvate, 2 mM L-glutamine and antibiotics) supplemented with or without 50 nM PEDF peptide). The medium was replaced every 3 days for 12 days.
(§1) For immunofluorescence study, the specimens were blocked with 10% goat serum and 5% BSA for 1 hour. Immunostaining was done using primary antibodies against aggrecan (1:100 dilution), type II collagen (1:100 dilution), and BrdU (1:100 dilution) at 37° C. for 2 hours, followed by incubation with the appropriate rhodamine- or FITC-conjugated donkey IgG for 1 hour at room temperature. Nuclei were located by counterstaining with Hoechst 33258 for 7 min. Images were captured using a Zeiss epifluorescence microscope with a CCD camera. Blinded quantification was performed in triplicate by manually counting cells from 20 randomly-selected fields in each section.
Primary chondrocytes were isolated from rat articular cartilage and cultivated in the presence or absence of the present PEDF peptides to elucidate the stimulating effect of the present PEDF peptides on chondrocyte proliferation.
By contrast, in the vehicle group, the colonies are much smaller in the absence of PEDF peptides. The chondrocyte identity of cells within the colony was confirmed by aggrecan immunostaining (FIG. 4A, inserts). The level of aggrecan-positive cells in the monolayer culture (FIG. 4B) were quantified from 20 randomly selected fields, and the aggrecan labeling index (%) was computed as the number of aggrecan-labeled cells divided by the total number of cells (nucleus labeling by Hoechst 33258). Results are summarized in Table 2; *P<0.01 versus untreated cells.

[3] = test system: chondrocytes in damaged articular cartilage (MIA-induced osteoarthritis); assay: MIA-induced knee osteoarthritis in rats: chondrocyte proliferation and cartilage regeneration in vivo; parameters: species or system Sprague-Dawley rats; conditions: for BrdU/Aggrecan Labeling Index (%): rat MIA knee, 0.2 mM peptide in 25 μl of 5% HA (HA group: 5% HA alone), intra-articular on day 8, 12, 16, 20 post-MIA, mean±SEM, *P<0.0001 vs vehicle/HA; for H&E histology of knee joint (morphological changes associated with osteoarthritis): specimens day-18 and day-25 post-MIA injection, FIG. 1; for Chondrocytes in cartilage layers, microscopic images: knee specimens 25 days after MIA injection, FIG. 2
Method: Animal models of osteoarthritis were established by intra-articular injection of MIA. Specifically, adult 10-wk-old male Sprague-Dawley rats (initial body wt=312±11 g) were anesthetized with an intraperitoneal injection of xylazine (10 mg/kg), followed by a single intra-articular injection of MIA (1 mg of MIA in 25 μl of sterile saline) in the right knee. In particular, the MIA solution was injected through the patellar ligament by using a 27G needle with the leg flexed at a 90° angle at the knee.
For the detection of in vivo cell proliferation, BrdU was reconstituted in DMSO as stock (80 mM). 150 μl of BrdU mixed with 350 μl of PBS was intraperitoneally injected into rat at 16 hours prior to euthanasia. DNA synthesis was then assessed by BrdU labeling with anti-BrdU antibodies according to procedures set forth below.
The knee joints were dissected and the surrounding soft tissue was removed. Specimens were fixed in 4% paraformaldehyde and then decalcified with Shandon TBD-2 decalcifier (Thermo Scientific; Logan, Utah). The joints were then sectioned mid-sagittally and embedded in paraffin blocks. Sections (5 μm in thickness) were longitudinally cut.
Before use, fixed samples were de-pa raffinized in xylene and rehydrated in a graded series of ethanol. The sample were then stained with hematoxylin and eosin (H&E) or used for immunohistochemical examination. 20 sections per knee were carefully prepared so as to include the most severely degenerated area.
Paraffin-embedded joint specimens were deparaffinized in xylene and rehydrated in a graded series of ethanol. Deparaffinized specimens were then exposed to 1 N HCl at room temperature for 1 hour for subsequent immunofluorescence study.
as §1
Knee osteoarthritis is a common chronic degenerative disease characterized by loss of articular cartilage. Injection of mono-iodoacetate (MIA), an inhibitor of glycolysis, into the femorotibial joint space of rodents has been reported to induce loss of articular cartilage similar to that noted in human OA. It has been established that extensive chondrocyte degeneration/necrosis usually arises at 7 days after MIA injection. Therefore, PEDF peptide treatment was started on day 8 post-MIA injection, so as to elucidate whether the present PEDF peptides promote cartilage regeneration.
Rats were randomly assigned to 6 experimental groups (n=6, each group) and treated as follows. In the HA group, rats received 25 μl of 5% hyaluronic acid injection. In the Vehicle/HA group, rats were treated with DMSO vehicle re-dissolved in 25 μl of 5% HA. As to the 29-mer/HA, 24-mer/HA, 20-mer/HA, and 18-mer/HA groups, rats received 0.2 mM PEDF peptide (29-mer, 24-mer, 20-mer or 18-mer) re-dissolved in 25 μl of 5% HA. Treatments were applied by way of a single intra-articular injection once on day-8, 12, 16 and 20, respectively, post-MIA injection.
Quantitative analysis was performed as described above from 3 sections per knee joint specimen, and 6 rats at each group. The BrdU/aggrecan labeling index (%) was computed as the number of BrdU- and aggrecan-double positive cells divided by the total number of aggrecan-positive cells. Results are summarized in Table 1; *P<0.0001 versus the vehicle/HA group.

[4] = test system: mesenchymal stem cells (MSCs); assay: Chondrogenic differentiation of MSCs: aggrecan immunostaining; type: cell-based, Sprague-Dawley rats; conditions: rat MSCs in chondrogenic medium plus 50 nM peptide, 1 week; mean±SEM; *P<0.0001 vs vehicle
Method: Adult 8-wk-old male Sprague-Dawley rats were anesthetized with an intraperitoneal injection of xylazine (10 mg/kg). Femurs were aseptically harvested, washed in a mixture of PBS and antibiotics for 5 minutes, dissected of all soft tissue, transected at their epiphysis, and their marrow cavity was rinsed repeatedly with a mixture of heparin and DMEM. The harvested cells were centrifuged at 1000×g for 10 minutes. Cell pellets were resuspended with DMEM, and then the cell suspension was transferred to a 15-ml centrifuge tube containing 5 ml of Percoll (1.073 g/ml). After centrifugation at 1500×g for 30 minutes, the mononuclear cells in the middle layer were separated, washed three times with PBS and then resuspended in low-glucose DMEM with 10% heat-inactivated FBS and 1% penicillin/streptomycin. Cells were then incubated with 95% air and 5% CO2 at 37° C.; the medium was replaced every 4 days. Unattached cells were discarded and adherent cells were retained. The primary mesenchymal stem cells (MSCs) grew to approximately 80%-90% confluence after culture for 1 week.
For inducing the chondrogenic differentiation of MSCs, 5×10^5 expanded MSCs were exposed to chondrogenic medium (high-glucose DMEM with 100 nM dexamethasone, 0.17 mM ascorbic acid-2 phosphate, 10 μg/ml of insulin, 5 μg/ml of transferrin, 5 ng/ml selenium, 1 mM sodium pyruvate, 2 mM L-glutamine, and 2% FBS) supplemented with 10 ng/ml TGF-β2 (R&D Systems; Minneapolis, Minn.). […]
For immunofluorescence study, the specimens were blocked with 10% goat serum and 5% BSA for 1 hour. […] Blinded quantification was performed in triplicate by manually counting cells from 20 randomly-selected fields in each section.
Immunostaining for aggrecan and type II collagen was also performed to investigate the pro-differentiation activity of the present PEDF peptides. The level of aggrecan-positive cells were quantified from 20 randomly selected fields, and the aggrecan labeling index (%) was computed as the number of aggrecan-labeled cells divided by the total number of cells (nucleus labeling by Hoechst 33258). […]

| Substance | Effectiveness in treating osteoarthritis in a subject [1] | Aggrecan Labeling Index (%) [2] | BrdU/Aggrecan Labeling Index (%) [3] | Aggrecan Labeling Index (%) [4] | further results |
| --- | --- | --- | --- | --- | --- |
| ALSALSLGAEQRTESIIHRALYYDLISSPDIHGT [34-mer, corresponds to residues 88-121 of human PEDF] | effective | – | – | – | – |
| EQRTESIIHRALYYDLIS (optionally in 5% hyaluronic acid) [18-mer, peptide lacking the SLGA residues; /HA = re-dissolved in 5% hyaluronic acid, reference compound] | fails to elicit any protection against osteoarthritis | 31.8 ± 2.6% | does not elicit such promoting effect | – | BrdU/Aggrecan Labeling Index (%) ([3]; listed as 18-mer/HA): 0.67 ± 0.33%; H&E histology of knee joint (morphological changes associated with osteoarthritis) [3]: morphological changes associated with osteoarthritis (including the reduction of cartilage, the superficial fibrosis of cartilage and subchondral bone collapse) is noted |
| EQRTESIIHRALYYDLISSPDIHGT [25-mer, peptide lacking the SLGA residues] | ineffective | – | – | – | – |
| SLGAEQRTESIIHRALYYDL (optionally in 5% hyaluronic acid) [20-mer, residues 93-112 of human PEDF; /HA = re-dissolved in 5% hyaluronic acid] | – | 50.1 ± 3.6* % | 17.5 ± 2.7* % | 78.7 ± 3.8* % | Chondrocyte growth and colony formation ([2]; vs vehicle group, FIG. 4A): chondrocytes grew faster and aggregated into huge three dimensional colonies; Aggrecan-positive cells among all cells (aggrecan/Hoechst 33258 dual staining) ([3]; FIG. 3 middle panels): over 95%; Chondrocytes in cartilage layers, microscopic images [3]: occupation of large numbers of newly generated chondrocyte throughout the cartilage; H&E histology of knee joint (morphological changes associated with osteoarthritis) [3]: the cartilage surface is smoother and the cartilage and subchondral bone are relatively integral; Aggrecan-positive signals in cartilage (immunostaining) ([3]; superficial, transitional and deep zone, vs vehicle-treated knee, FIG. 3 left): heavily accumulated; Numbers of BrdU-positive cells ([3]; vs vehicle/HA group, FIG. 3 right panels): increased significantly |
| SLGAEQRTESIIHRALYYDLISSP (optionally in 5% hyaluronic acid) [24-mer, residues 93-116 of human PEDF; /HA = re-dissolved in 5% hyaluronic acid] | – | 50.0 ± 2.9* % | 16.0 ± 2.03* % | 78.8 ± 4.3* % | – |
| SLGAEQRTESIIHRALYYDLISSPDIHGT (optionally in 5% hyaluronic acid) [29-mer, residues 93-121 of human PEDF; /HA = re-dissolved in 5% hyaluronic acid] | – | 52.2 ± 5.2* % | 15.0 ± 2.38* % | 76.8 ± 5.0* % | Chondrocytes in cartilage layers, microscopic images [3]: occupation of large numbers of newly generated chondrocyte throughout the cartilage |
| hyaluronic acid [HA, reference compound] | – | – | 0.71 ± 0.28% | – | – |
